The text below walks through data of ChEMBL document CHEMBL1131364, “Novel modified tripeptide inhibitors of alpha 4 beta 7 mediated lymphoid cell adhesion to MAdCAM-1” (Bioorg Med Chem Lett, 1998).

Numbered stars: 1 amine (or outer) side, 2 acyl side, 3 side chain; on linkers, the order of the positions; unused ones are H or OH. Peptide text beside a SMILES is read from it. * marks the point of attachment. CO = O=C([*:1])[*:2]; NHPh = c1ccc(N*)cc1

The nature of the assay: In vitro inhibition of RPMI 8866 cell adhesion to human MAdCAM-1 IgG chimera. It counts as cell-based.
`CC(C)C[C@H](NC(=O)c1cc2ccccc2o1)C(=O)N[C@@H](CC(=O)O)C(=O)N[C@H](C(=O)NCc1ccc(F)c(F)c1)[C@@H](C)O` gave an IC50 of 5.2 µM. In other words, the single-digit micromolar range. For `COc1ccc(CCNC(=O)[C@@H](NC(=O)[C@H](CC(=O)O)NC(=O)[C@H](CC(C)C)NC(=O)c2cc3ccccc3cn2)[C@@H](C)O)cc1` the value was over 25 µM; for `COc1ccc(CNC(=O)[C@@H](NC(=O)[C@H](CC(=O)O)NC(=O)[C@H](CC(C)C)NC(=O)c2cc3ccccc3cn2)[C@@H](C)O)cc1`, 3 µM; for `CC(C)C[C@H](NC(=O)c1cc2ccccc2cn1)C(=O)N[C@@H](CC(=O)O)C(=O)N[C@H](C(=O)NCc1ccc(F)cc1)[C@@H](C)O`, 5.2 µM. As for `CC(C)C[C@H](NC(=O)c1coc2ccccc2c1=O)C(=O)N[C@@H](CC(=O)O)C(=O)NC(C(N)=O)C(O)c1ccccc1` (some centres undefined), the figure is 6.4 µM. Turning to `CC(C)C[C@H](NC(=O)c1cc2ccccc2cn1)C(=O)N[C@@H](CC(=O)O)C(=O)N[C@@H](C(N)=O)[C@@H](C)O`, the IC50 was determined as 3.9 µM. This IC50 is about 1.6-fold lower than that of the compound before. For `CC(C)C[C@H](NC(=O)c1coc2ccccc2c1=O)C(=O)N[C@@H](CC(=O)O)C(=O)N[C@H](C(N)=O)[C@@H](C)O` the value was 1.3 µM; for `CC(C)C[C@H](NC(=O)c1ccc([N+](=O)[O-])cc1)C(=O)N[C@@H](CC(=O)O)C(=O)N[C@H](C(N)=O)[C@@H](C)O`, 9 µM; for `CC(C)C[C@H](NC(=O)c1cc2ccccc2o1)C(=O)N[C@@H](CC(=O)O)C(=O)N[C@H](C(=O)NCc1ccc2c(c1)OCO2)[C@@H](C)O`, 4.4 µM. For `COc1ccc(C(=O)N[C@@H](CC(C)C)C(=O)N[C@@H](CC(=O)O)C(=O)N[C@H](C(N)=O)[C@@H](C)O)cc1` the value was over 25 µM. For `CC(C)C[C@H](NC(=O)c1cc2ccccc2cn1)C(=O)N[C@@H](CC(=O)O)C(=O)N[C@H](C(N)=O)[C@@H](C)O` the value was 3.1 µM; for `CC(C)C[C@H](NS(=O)(=O)c1ccccc1)C(=O)N[C@@H](CC(=O)O)C(=O)N[C@H](C(N)=O)[C@@H](C)O`, over 25 µM; for `CC(C)C[C@H](NC(=O)c1cc2ccccc2o1)C(=O)N[C@@H](CC(=O)O)C(=O)N[C@H](C(N)=O)[C@@H](C)O`, 2.3 µM. For the compound `CC(C)C[C@H](NC(=O)c1cc2ccccc2cn1)C(=O)N[C@@H](CC(=O)O)C(=O)N[C@H](C(=O)NCc1ccncc1)[C@@H](C)O`, the IC50 is 1.1 µM.

Take `CC(C)C[C@H](NC(=O)/C=C/c1ccccc1)C(=O)N[C@@H](CC(=O)O)C(=O)N[C@H](C(N)=O)[C@@H](C)O`: inhibition was half-maximal at 4.9 µM (IC50).

On to `CC(C)C[C@H](NC(=O)c1coc2ccccc2c1=O)C(=O)N[C@@H](CC(=O)O)C(=O)N[C@H](C(N)=O)[C@H](C)O`, for which inhibition was half-maximal at 4.7 µM (IC50). The IC50 values of the last two compounds are within 1.5-fold of each other. As for `CC(=O)N[C@@H](CC(C)C)C(=O)N[C@@H](CC(=O)O)C(=O)N[C@H](C(N)=O)[C@@H](C)O` (Ac-Leu-Asp-Thr-NH2), the figure is 250 µM; as for `CC(C)C[C@H](NC(=O)c1ccccc1)C(=O)N[C@@H](CC(=O)O)C(=O)N[C@H](C(N)=O)[C@@H](C)O` (HELM PEPTIDE1{[O=C(c1ccccc1)[*:2]].L.D.T.[am]}$$$$V2.0), 8.2 µM. `CC(C)C[C@H](NC(=O)Nc1ccccc1)C(=O)N[C@@H](CC(=O)O)C(=O)N[C@H](C(N)=O)[C@@H](C)O` ({NHPh-CO}-Leu-Asp-Thr-NH2) returned an IC50 of over 25 µM.

For orientation: IC50 means the concentration needed to halve the response being measured.
